One data set has as its target T1, human EP2 receptor (Homo sapiens, UniProt P43116).
T1 construct: expressed in transfected cells
Kind of data set: Cell-based cAMP TR-FRET assay, Schild KB on EP2. The conditions noted are these: for Kb: Schild KB, agonist PGE2, antagonist concentration 1 μM, C6G cells expressing human EP2.

The next data set has as its target T2, human DP1 receptor (Homo sapiens, UniProt Q13258).
T2 sequence (Q13258 1-359): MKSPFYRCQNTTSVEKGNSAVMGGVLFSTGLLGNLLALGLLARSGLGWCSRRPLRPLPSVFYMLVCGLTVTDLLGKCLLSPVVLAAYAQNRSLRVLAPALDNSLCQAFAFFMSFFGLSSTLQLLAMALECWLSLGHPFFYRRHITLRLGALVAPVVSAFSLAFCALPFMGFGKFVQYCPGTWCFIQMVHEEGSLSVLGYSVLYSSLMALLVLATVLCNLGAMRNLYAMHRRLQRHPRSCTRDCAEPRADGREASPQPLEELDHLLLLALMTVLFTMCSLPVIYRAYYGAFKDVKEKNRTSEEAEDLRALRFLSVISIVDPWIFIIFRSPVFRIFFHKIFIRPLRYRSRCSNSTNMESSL
The conditions noted are these: selectivity index DP1 KB/EP2 KB, fold.

The next data set concerns the target human EP4 receptor (Homo sapiens, UniProt P35408). Kind of data set: Cell-based cAMP TR-FRET assay on EP4 (agonist PGE2). The conditions noted are these: selectivity index EP4 KB/EP2 KB, fold. A general note: Time-resolved FRET reads energy transfer from a long-lived donor to a nearby acceptor.
The next data set has as its target human IP receptor (Homo sapiens, UniProt P43119). The experiment in a line: Cell-based cAMP TR-FRET assay on IP (agonist iloprost). The conditions noted are these: selectivity index IP KB/EP2 KB, fold.
The nature of data set [1]: Mouse liver microsomal (MLM) stability. The conditions noted are these: 1 μM compound.
Data set [2] in a line: Metabolite investigation in mouse liver microsomes. In kind it is in vitro ADME. The conditions noted are these: 2a after 5 minutes; 3 after 20 minutes. In general terms: Microsomes from liver hold many membrane-bound enzymes, among them those of drug oxidation.
Another data set has as its system C6glioma cells. The note with it: rat.
The nature of data set [3]: Thermodynamic shake flask solubility in neat water.
Data set [4] in a line: Kinetic aqueous solubility in PBS by nephelometry. The note with it: for Aqueous Solubility: PBS buffer (pH 7.4) with 1% DMSO, nephelometry.
The nature of data set [5]: physchem. The note with it: water, thermodynamic from solid.
The next data set can be described thus: in vitro. The note with it: mouse, pooled liver microsomes.
Data set [6] can be described thus: physchem. The conditions noted are these: pH 2, simulated gastric fluid, kinetic from dmso stock.
For data set [7] the following is noted: mouse.
A short description of data set [8]: Solubility in simulated gastric fluid (SGF) by nephelometry.
For data set [9] the following is noted: pH 7.4.
For data set [10] the following is noted: mouse. This is another data set of the same source.

In brackets after ≈: the same amount, converted by molar mass. Structures can show the parent of a compound that is named as a salt. Where two headings read alike, the source gives them in different places.

Chain of human IP receptor (P43119 whole entry): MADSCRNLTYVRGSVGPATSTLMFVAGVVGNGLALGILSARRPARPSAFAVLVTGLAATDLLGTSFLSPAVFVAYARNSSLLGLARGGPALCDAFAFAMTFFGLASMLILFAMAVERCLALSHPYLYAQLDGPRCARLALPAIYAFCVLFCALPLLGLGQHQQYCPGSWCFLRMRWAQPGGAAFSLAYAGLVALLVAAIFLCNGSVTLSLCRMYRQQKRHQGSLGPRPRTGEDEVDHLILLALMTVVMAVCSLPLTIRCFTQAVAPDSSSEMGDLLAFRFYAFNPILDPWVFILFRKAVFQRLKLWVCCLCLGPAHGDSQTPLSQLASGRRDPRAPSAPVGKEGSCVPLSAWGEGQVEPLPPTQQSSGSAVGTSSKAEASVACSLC
T1 sequence (P43116 whole entry): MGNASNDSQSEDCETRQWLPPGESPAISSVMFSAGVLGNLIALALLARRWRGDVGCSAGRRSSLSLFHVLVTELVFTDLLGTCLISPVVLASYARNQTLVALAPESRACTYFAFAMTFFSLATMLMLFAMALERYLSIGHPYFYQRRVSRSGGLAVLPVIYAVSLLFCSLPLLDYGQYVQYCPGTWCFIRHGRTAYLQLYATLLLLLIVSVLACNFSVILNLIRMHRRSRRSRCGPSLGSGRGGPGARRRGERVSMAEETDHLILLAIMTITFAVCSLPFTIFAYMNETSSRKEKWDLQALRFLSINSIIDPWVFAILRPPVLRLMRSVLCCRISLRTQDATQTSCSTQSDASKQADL
Chain of human EP4 receptor (P35408 whole entry): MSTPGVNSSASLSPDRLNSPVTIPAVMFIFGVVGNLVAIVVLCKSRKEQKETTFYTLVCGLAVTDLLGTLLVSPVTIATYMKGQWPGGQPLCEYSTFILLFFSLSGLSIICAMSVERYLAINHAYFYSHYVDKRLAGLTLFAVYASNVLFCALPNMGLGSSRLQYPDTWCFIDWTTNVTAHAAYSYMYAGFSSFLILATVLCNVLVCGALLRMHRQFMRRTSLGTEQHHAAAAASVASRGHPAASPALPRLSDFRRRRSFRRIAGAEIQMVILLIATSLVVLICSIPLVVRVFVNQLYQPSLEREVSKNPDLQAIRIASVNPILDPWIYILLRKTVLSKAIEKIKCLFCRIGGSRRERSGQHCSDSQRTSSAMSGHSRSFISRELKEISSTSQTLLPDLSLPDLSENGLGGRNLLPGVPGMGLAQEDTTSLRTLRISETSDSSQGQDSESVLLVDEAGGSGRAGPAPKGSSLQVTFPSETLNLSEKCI

On to `Cc1[nH]c2ccccc2c1CCNC(=O)c1ccc(-c2cnc[nH]2)cc1` [TG8-260, 4-(1H-imidazol-5-yl)-N-(2-(2-methyl-1H-indol-3-yl)ethyl)benzamide], for which the “inhibition of PGE2-induced human EP2 receptor activation” value at human EP2 receptor (concentration-response, in words) is “inhibits PGE2-induced human EP2 receptor activation in a concentration dependent manner”. In addition, the “S.I. (DP1/EP2)” value at human DP1 receptor is reported as “at least 300”. For the same compound, on human EP4 receptor, the “S.I (EP4/EP2)” value is recorded as “at least 300”. Also, on human IP receptor, the “S.I (IP/EP2)” value is recorded as “at least 300”.

The compound `Cc1[nH]c2ccccc2c1CCNC(=O)c1ccc(-c2nnn[nH]2)cc1` [Compound 3] returned an MLMt1/2 in data set [1] (0.5 mg/mL liver microsomes (compounds 1 and 3)) above 60 min. In the data set “in vivo” (mouse, po, 10 mg/kg), the half-life – broadly, how long it takes for the measured level to halve – is above 6 h. Moreover, the “metabolites after incubation in mouse liver microsomes” value in [2] is listed as “did not produce any fragments even after 20 minutes of incubation”.

For `COc1cccc2c1C(=O)c1c(O)c3c(c(O)c1C2=O)C[C@@](O)(C(=O)CO)C[C@@H]3O[C@H]1C[C@H](N)[C@H](O)[C@H](C)O1` [doxorubucin, reference compound], half-maximal cytotoxicity with C6glioma cells (CC50) was put at 900 nM.

Turning to `Cc1cc(C)nc(Nc2ncc(C(=O)NCCc3c(C)[nH]c4ccccc34)cn2)c1` [Compound 20o.HCl, 2-((4,6-Dimethylpyridin-2-yl)amino)-N-(2-(2-methyl-1H-indol-3-yl)ethyl)pyrimidine-5-carboxamide.Hydrochloride], the “water pH after dissolving” value in data set [3] (2 mg/mL in neat water, starting pH 6.4) amounted to 3.5. Besides, the water solubility in data set [3] (thermodynamic solubility in water, HCl salts) came to 1000 µg/mL. Further, in [3] (water, thermodynamic from solid), the solubility (in general, the concentration that dissolves in the medium under given conditions) was in the range of 1100 to 1200 µg/mL.

Take `Cc1cc(C)nc(Nc2ncc(C(=O)NCCc3c(C)[nH]c4c(F)cccc34)cn2)c1` [Compound 24aa, 2-((4,6-dimethylpyridin-2-yl)amino)-N-(2-(7-fluoro-2-methyl-1H-indol-3-yl)ethyl)pyrimidine-5-carboxamide]: the MLMt1/2 in data set [1] (0.125 mg/mL liver microsomes (Table 7)) stood at 23 min. Moreover, the solubility in data set [4] (PBS with 1% DMSO, pH 7.4, aqueous buffer, kinetic from dmso stock) is 150 µM (≈ 62.8 µg/mL); in the data set “physchem [5]” it was 1100 to 1200 µg/mL (≈ 2630 to 2870 µM); in the data set “physchem [6]” it was above 250 µM. The compound also displayed a solubility at 24 h in “physchem [5]” of 2640 µM (≈ 1100 µg/mL). The Kb (as a rule, the equilibrium dissociation constant of an antagonist, usually derived from a functional assay) on human EP2 receptor worked out at 1.7 nM. The compound further came in with a half-life at 1 μM in the data set “in vitro” of 0.383 h. In “in vivo” (C57BL/6, mouse), this compound came in with a Kp at 0.5 h of 0.4. This compound showed a half-life in the data set “in vivo” (mouse, ip, 20 mg/kg) of 5.4 h.

As to `Cc1[nH]c2ccccc2c1CCNC(=O)c1cnc(Nc2cc(F)ccn2)nc1` [Compound 20c, 2-((4-Fluoropyridin-2-yl)amino)-N-(2-(2-methyl-1H-indol-3-yl)ethyl)pyrimidine-5-carboxamide], in [4], the Aqueous Solubility (commonly how much of the substance goes into solution per volume) was determined as 15 µM. Further, the “S.I (EP4/EP2)” value on human EP4 receptor is listed as above 1500. Also, the stability in vivo entry in [7] is recorded as “unstable in vivo”. Further, the “S.I (IP/EP2)” value on human IP receptor is given as above 1500.

For `Cc1[nH]c2ccccc2c1CCNC(=O)c1cnc(Nc2ccccn2)nc1` [Compound 20a, N-(2-(2-Methyl-1H-indol-3-yl)ethyl)-2-(pyridin-2-ylamino)pyrimidine-5-carboxamide], the “Aqueous Solubility” value in data set [4] turned out to be 27 µM. The “S.I. (DP1/EP2)” value on human DP1 receptor is given as above 900. Also, the “S.I (IP/EP2)” value on human IP receptor is recorded as above 900.

With `COc1cccc(Nc2ncc(C(=O)NCCc3c(C)[nH]c4ccccc34)cn2)n1` [Compound 20h, 2-((6-Methoxypyridin-2-yl)amino)-N-(2-(2-methyl-1H-indol-3-yl)ethyl)pyrimidine-5-carboxamide], the “Aqueous Solubility” value in data set [4] is 15 µM. In addition, the antagonist equilibrium constant (Kb) on human EP2 receptor worked out at 7.8 nM. In addition, the “S.I. (DP1/EP2)” value on human DP1 receptor is on record as above 1280. Also, on human IP receptor, the “S.I (IP/EP2)” value was above 1280.

Take `Cc1cc(C)nc(Nc2ncc(C(=O)NCCc3c(C)[nH]c4ccccc34)cn2)c1` [Compound 20o, 2-((4,6-Dimethylpyridin-2-yl)amino)-N-(2-(2-methyl-1H-indol-3-yl)ethyl)pyrimidine-5-carboxamide]: the “Aqueous solubility of corresponding HCl salt in SGF” value in data set [8] (HCl salt, simulated gastric fluid pH 2.0, nephelometry) was above 250 µM. In data set [8] (pH 2, simulated gastric fluid, kinetic from dmso stock), this compound yielded a solubility above 100 µM. Besides, the “Aqueous Solubility” value in [9] was determined as 15 µM. Moreover, the CC50 (commonly the concentration that lowers cell viability or growth by half) in the data set with C6glioma cells is above 50000 nM. Also, the bioavailability (in general, the share of a dose that reaches the circulation, judged against a reference dose that is usually intravenous) in the data set “in vivo” (mouse, po) was 25%. The “substrate of efflux pumps” value in the data set with MDR1-MDCK cell line is “not the substrate of efflux pumps”. Besides, in the data set with MDR1-MDCK cell line (dog), the “Permeability across MDR1-MDCK cell line, A-B” value is “A-B: 13.2 × 10^−6 cm/s” and the “Permeability across MDR1-MDCK cell line, B-A” value is “B-A: 22.2 × 10^−6 cm/s”. Moreover, in [10], the MLMt1/2 is given as 17 min.

Source of the values: patent publication US20250206721A1, “Prostaglandin Receptor EP2 Antagonists, Derivatives, and Uses Related Thereto” (Emory University, priority 2019, published 2025).
